How the values were obtained:
Cavia porcellus [1] = assay: Compound was tested for antigen induced airway obstruction in guinea pig at 2.0 hr upon peroral administration; assay type: functional; conditions: po
U-937 = assay: Compound was evaluated for influx of calcium mobilization in human U937 cells; assay type: functional, cell-based
Cavia porcellus [2] = assay: Compound was tested for antigen induced airway obstruction in guinea pig at 1.0 hr upon peroral administration; assay type: functional; conditions: po

| Structure (SMILES) | ED50 (Cavia porcellus [1]) [mg/kg] | IC50 (U-937) [nM] | ED50 (Cavia porcellus [2]) [mg/kg] |
| --- | --- | --- | --- |
| O=C(O)c1cccc(C[C@@H]2COc3ccc(OCc4nc5cc(F)ccc5s4)cc3[C@@H]2O)c1 | 10.2 | 310 |  |
| C[C@H]1Oc2ccc(OCc3nc4cc(F)ccc4s3)cc2[C@H](O)[C@@H]1Cc1cccc(NS(=O)(=O)C(F)(F)F)c1 (stereo in doubt; (+)-26) |  | 8 | 0.5 |
| O=C(Nc1cccc2c(=O)cc(-c3nnn[nH]3)oc12)c1ccc(OCCCCc2ccccc2)cc1 |  | 1 | 1.5 |
| COc1cc(C(=O)NS(=O)(=O)c2ccccc2C)ccc1Cc1cn(C)c2ccc(NC(=O)OC3CCCC3)cc12 [ZAFIRLUKAST] | 0.9 |  |  |

Source: ChEMBL document CHEMBL1131366, “Development of new chromanol antagonists of leukotriene D4” (Bioorg Med Chem Lett, 1998)
